From US20250276964A1 (Novartis AG, priority 2021, published 2025) come the findings set out here.

Where a name gives a salt, the structure may show the parent alone.

In the experiment the target is T1, WIZ (Homo sapiens, UniProt O95785+Q96SW2).
T1 construct: expressed in transfected cells
The experiment is described as follows: Quantification of WIZ protein levels in HiBit tag fusion protein assay (WIZ HiBit assay in 293T cells). The format is cell-based. The following applies: for % degradation of WIZ (100-Amax) / Dmax at 25 µM: 100 minus Amax at 25 uM; for WIZ Amax / remaining activity at 25 µM: DMSO-normalized, curve-fitted percentage of WIZ-HiBit remaining at 25 uM; for DC50: WIZ HiBit assay in 293T cells, 10-point, 5-fold dilution, highest concentration 25 μM, about 18 hours, read-out: WIZ AC50; for Dmax at 25 µM / remaining activity at 25 µM: HEK-293T; for Dmax at 25 µM: read-out: % degradation of WIZ (100-Amax); for remaining activity at 25 µM: read-out: WIZ Amax. The method, then: The HiBit system from Promega was used to develop high-throughput and quantitative assays to measure changes in WIZ protein levels in response to compounds. The HiBit tag was derived from a split Nanoluciferase and has the following protein sequence: […] (SEQ ID NO: 1). The complementary fragment of Nanoluciferase (known as LgBit, from Promega), was added to the HiBit tag to form an active Nanoluciferase enzyme whose activity can be precisely measured. In this way, the levels of a fusion protein with the HiBit tag can be quantified in cell lysates.
Lentiviral vectors, based on the Invitrogen™ pLenti6.2/V5 DEST backbone were constructed that places the HiBit tag upstream of WIZ and expressed the fusion protein from an HSVTK promotor.
To ensure moderate and consistent expression of the HiBit-WIZ fusion protein across all cells in the population, stable cell lines were constructed from cells harboring a single copy of the construct. Lentivirus packaged with the constructs were made using the ViraPower™kit from Invitrogen™. 293T cells from ATCC (Catalog number: CRL-3216), were infected with the virus at low multiplicity of infection and selected by 5 μg/mL blasticidin in culture media for 2 weeks.
The levels of HiBit-WIZ tagged fusion proteins in compound-treated cell lines were measured as follows:
On day 1, cells were diluted to 1.0×10^6 cells/ml in normal growth medium. 20 μL of cell suspension were plated in each well of a solid white 384-well plate. Plates were incubated overnight in a 37° C. and 5% CO2 humidified tissue culture incubator.
On day 2, serial dilutions of compounds were made in 384-well plates. Compound plates were set up with DMSO in columns 1, 2, 23, 24, and 10-point compound dilution series in column 3-12 and column 13-22. 10 mM stock solution of compound were placed into column 3 or 13 and a 1:5 serial dilution was carried out until there was a 10-point dilution series per compound. 50 nL of diluted compounds were transferred into the plated cells by Echo® (Labcyte) acoustic transfer. The highest concentration of compound was 25 μM. Plates were incubated overnight (about 18 hours) in a 37° C. and 5% CO2 humidified tissue culture incubator.
On day 3, plates were removed from the incubator and allowed to equilibrate at room temperature for 60 minutes. HiBit substrate (Nano-Glo® HiBit Lytic Detection System, Promega Catalogue number: N3050) was added as described by the manufacturers protocols. Plates were incubated at room temperature for 30 minutes and luminescence was read using an EnVision® reader (PerkinElmer®). Data was analyzed and visualized using the Spotfire® software package.
WIZ Amax reflects the DMSO-normalized, curve-fitted percentage of WIZ-HiBit remaining at 25 uM. It was calculated by normalizing DMSO controls to 100%, parametric curve fitting of the dose response data (10-point, 5-fold), followed by calculation of response at 25 uM using the fitted equation (nd=not determined).
Background: The HiBiT peptide binds its large partner to form an active luciferase.

T1 sequence (O95785 whole entry): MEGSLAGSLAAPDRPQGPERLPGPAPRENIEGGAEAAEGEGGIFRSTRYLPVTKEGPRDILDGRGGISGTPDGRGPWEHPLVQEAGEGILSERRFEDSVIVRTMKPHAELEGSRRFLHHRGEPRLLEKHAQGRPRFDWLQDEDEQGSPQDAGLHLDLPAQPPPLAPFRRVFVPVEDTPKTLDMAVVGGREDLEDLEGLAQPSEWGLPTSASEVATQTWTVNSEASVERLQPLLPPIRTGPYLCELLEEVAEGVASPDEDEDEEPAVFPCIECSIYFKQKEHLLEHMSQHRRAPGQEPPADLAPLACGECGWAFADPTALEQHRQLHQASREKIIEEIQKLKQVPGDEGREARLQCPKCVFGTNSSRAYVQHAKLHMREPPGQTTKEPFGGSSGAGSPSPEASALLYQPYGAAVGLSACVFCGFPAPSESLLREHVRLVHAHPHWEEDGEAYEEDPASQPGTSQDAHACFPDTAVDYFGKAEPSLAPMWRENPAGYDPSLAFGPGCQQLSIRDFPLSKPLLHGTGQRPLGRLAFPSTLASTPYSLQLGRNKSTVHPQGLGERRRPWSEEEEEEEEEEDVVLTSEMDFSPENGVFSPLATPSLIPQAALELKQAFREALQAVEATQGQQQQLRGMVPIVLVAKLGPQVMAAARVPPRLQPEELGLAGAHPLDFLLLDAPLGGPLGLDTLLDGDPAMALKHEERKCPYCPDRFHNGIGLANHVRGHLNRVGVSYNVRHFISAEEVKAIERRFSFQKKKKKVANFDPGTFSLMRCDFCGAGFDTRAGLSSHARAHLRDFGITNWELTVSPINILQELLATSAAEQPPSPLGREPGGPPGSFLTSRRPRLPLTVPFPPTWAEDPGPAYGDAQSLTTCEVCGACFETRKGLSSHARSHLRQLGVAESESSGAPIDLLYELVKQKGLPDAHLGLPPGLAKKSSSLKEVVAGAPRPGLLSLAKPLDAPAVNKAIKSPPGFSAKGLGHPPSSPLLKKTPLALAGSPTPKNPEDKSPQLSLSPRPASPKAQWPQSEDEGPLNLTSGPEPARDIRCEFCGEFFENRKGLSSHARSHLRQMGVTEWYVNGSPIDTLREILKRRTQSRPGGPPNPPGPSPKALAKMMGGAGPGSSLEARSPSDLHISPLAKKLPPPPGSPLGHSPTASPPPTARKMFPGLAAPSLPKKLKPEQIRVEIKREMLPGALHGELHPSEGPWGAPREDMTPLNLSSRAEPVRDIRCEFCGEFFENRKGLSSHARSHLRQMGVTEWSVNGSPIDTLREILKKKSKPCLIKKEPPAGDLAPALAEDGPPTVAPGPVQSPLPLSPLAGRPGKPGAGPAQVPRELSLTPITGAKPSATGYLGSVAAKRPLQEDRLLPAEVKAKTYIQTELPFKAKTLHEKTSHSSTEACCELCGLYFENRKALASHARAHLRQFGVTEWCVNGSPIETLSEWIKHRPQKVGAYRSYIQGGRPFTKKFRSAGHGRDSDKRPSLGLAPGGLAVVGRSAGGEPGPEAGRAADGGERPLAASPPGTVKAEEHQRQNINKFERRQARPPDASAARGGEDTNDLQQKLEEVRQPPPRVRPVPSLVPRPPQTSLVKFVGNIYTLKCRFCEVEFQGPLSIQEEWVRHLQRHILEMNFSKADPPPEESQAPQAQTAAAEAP
T1 sequence (Q96SW2 whole entry): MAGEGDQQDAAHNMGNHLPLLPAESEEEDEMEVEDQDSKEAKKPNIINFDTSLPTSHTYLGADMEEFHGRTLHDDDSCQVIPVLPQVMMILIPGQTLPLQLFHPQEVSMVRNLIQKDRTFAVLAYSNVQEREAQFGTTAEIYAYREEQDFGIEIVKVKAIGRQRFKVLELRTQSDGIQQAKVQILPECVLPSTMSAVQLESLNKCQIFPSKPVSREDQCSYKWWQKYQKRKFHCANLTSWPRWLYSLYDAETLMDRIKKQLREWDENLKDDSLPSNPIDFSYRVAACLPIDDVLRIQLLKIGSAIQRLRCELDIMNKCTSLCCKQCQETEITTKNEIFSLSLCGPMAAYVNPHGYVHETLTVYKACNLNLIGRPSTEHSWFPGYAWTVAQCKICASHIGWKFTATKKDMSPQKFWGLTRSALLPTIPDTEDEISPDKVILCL
T1 sequence (Q16531 whole entry partner): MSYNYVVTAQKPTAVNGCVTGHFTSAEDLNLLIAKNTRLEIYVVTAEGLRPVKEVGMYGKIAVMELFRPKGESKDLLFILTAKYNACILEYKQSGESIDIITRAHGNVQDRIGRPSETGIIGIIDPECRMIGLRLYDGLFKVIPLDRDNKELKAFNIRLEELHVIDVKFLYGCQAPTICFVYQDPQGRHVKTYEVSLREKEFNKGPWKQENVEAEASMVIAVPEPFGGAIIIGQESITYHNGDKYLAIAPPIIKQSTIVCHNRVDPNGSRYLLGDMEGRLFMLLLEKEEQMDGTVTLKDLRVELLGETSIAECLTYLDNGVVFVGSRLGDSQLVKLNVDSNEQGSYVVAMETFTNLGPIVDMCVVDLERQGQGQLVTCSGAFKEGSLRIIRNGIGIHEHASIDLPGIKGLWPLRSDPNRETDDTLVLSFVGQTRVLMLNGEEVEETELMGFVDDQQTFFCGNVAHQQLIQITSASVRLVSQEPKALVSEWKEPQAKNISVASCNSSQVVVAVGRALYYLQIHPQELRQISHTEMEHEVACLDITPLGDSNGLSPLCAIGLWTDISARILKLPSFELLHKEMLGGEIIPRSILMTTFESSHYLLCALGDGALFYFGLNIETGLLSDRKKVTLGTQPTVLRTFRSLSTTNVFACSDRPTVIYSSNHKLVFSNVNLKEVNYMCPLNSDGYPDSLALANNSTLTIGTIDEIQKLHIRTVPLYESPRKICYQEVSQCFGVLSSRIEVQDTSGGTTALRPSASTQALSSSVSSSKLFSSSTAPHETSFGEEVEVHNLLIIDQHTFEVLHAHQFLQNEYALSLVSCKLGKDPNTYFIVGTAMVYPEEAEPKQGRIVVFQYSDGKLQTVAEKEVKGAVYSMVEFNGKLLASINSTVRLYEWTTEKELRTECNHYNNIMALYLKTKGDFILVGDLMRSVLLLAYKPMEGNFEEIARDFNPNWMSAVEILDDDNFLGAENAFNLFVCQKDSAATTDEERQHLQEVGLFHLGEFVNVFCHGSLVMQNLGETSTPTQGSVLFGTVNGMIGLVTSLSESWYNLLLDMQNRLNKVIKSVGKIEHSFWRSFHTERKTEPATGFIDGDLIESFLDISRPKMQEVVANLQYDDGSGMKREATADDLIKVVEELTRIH

Take `CC(C)(C)OC(=O)N1[C@@H]2CC[C@H]1CC(Cc1ccc3onc(N4CCC(=O)NC4=O)c3c1)C2` (single isomer, unassigned) [Example 54]: the “% degradation of WIZ (100-Amax)” value is given as 92%, the “WIZ Amax” value amounted to 8% and the DC50 was determined as 196 nM.

Turning to `CC(C)(C)OC(=O)N1[C@@H]2CC[C@H]1CC(Cc1ccc3onc(N4CCC(=O)NC4=O)c3c1)C2` (single isomer, unassigned) [Example 55], the “% degradation of WIZ (100-Amax)” value is on record as 70%, the “WIZ Amax” value is reported as 30% and the DC50 was determined as 3200 nM.

Regarding `O=C1CCN(c2noc3ccc(CN4CC5CCC4CN5CC4CCOCC4)cc23)C(=O)N1` (single isomer, unassigned) [Example 121, 1-(5-((5-((tetrahydro-2H-pyran-4-yl)methyl)-2,5-diazabicyclo[2.2.2]octan-2-yl)methyl)benzo[d]isoxazol-3-yl)dihydropyrimidine-2,4(1H,3H)-dione], the Dmax at 25 µM was 86%, the remaining activity at 25 µM is 14% and the DC50 came out at 317 nM.

As to `O=C1CCN(c2noc3ccc(CN4CC5CCC4CN5CC4CCOCC4)cc23)C(=O)N1` (single isomer, unassigned) [Example 122, 1-(5-((5-((tetrahydro-2H-pyran-4-yl)methyl)-2,5-diazabicyclo[2.2.2]octan-2-yl)methyl)benzo[d]isoxazol-3-yl)dihydropyrimidine-2,4(1H,3H)-dione], the “% degradation of WIZ (100-Amax)” value is on record as 91%, the “WIZ Amax” value was determined as 9% and the DC50 was 44 nM.

Turning to `CN1CC2CCC1CN2Cc1ccc2onc(N3CCC(=O)NC3=O)c2c1` (single isomer, unassigned) [Example 123, 1-(5-((5-methyl-2,5-diazabicyclo[2.2.2]octan-2-yl)methyl)benzo[d]isoxazol-3-yl)dihydropyrimidine-2,4(1H,3H)-dione], the Dmax at 25 µM came out at 89%, the remaining activity at 25 µM was determined as 11% and the DC50 is 59 nM.

Take `CN1CC2CCC1CN2Cc1ccc2onc(N3CCC(=O)NC3=O)c2c1` (single isomer, unassigned) [Example 124, 1-(5-((5-methyl-2,5-diazabicyclo[2.2.2]octan-2-yl)methyl)benzo[d]isoxazol-3-yl)dihydropyrimidine-2,4(1H,3H)-dione]: the “% degradation of WIZ (100-Amax)” value amounted to 85%, the “WIZ Amax” value is reported as 15% and the DC50 was found to be 520 nM.

On to `CS(=O)(=O)N1CC2CCC1CN2Cc1ccc2onc(N3CCC(=O)NC3=O)c2c1` (single isomer, unassigned) [Example 125, 1-(5-((5-(methylsulfonyl)-2,5-diazabicyclo[2.2.2]octan-2-yl)methyl)benzo[d]isoxazol-3-yl)dihydropyrimidine-2,4(1H,3H)-dione], for which the Dmax at 25 µM worked out at 85%, the remaining activity at 25 µM was 15% and the DC50 amounted to 120 nM.

Turning to `CS(=O)(=O)N1CC2CCC1CN2Cc1ccc2onc(N3CCC(=O)NC3=O)c2c1` (single isomer, unassigned) [Example 126, 1-(5-((5-(methylsulfonyl)-2,5-diazabicyclo[2.2.2]octan-2-yl)methyl)benzo[d]isoxazol-3-yl)dihydropyrimidine-2,4(1H,3H)-dione], the “% degradation of WIZ (100-Amax)” value is 83%, the “WIZ Amax” value came to 17% and the DC50 stood at 134 nM.

With `O=C1CCN(c2noc3ccc(CC4CCN(CC5CCCCC5)CC4)cc23)C(=O)N1` [Example 1, 1-(5-((1-(cyclohexylmethyl)piperidin-4-yl)methyl)benzo[d]isoxazol-3-yl)dihydropyrimidine-2,4(1H,3H)-dione], the Dmax at 25 µM was found to be 91%, the remaining activity at 25 µM came to 9% and the DC50 turned out to be 7.2 nM.

In the case of `CC(C)(C)OC(=O)N1CCC(Cc2ccc3onc(N4CCC(=O)NC4=O)c3c2)CC1` [Example 1a, tert-butyl 4-((3-(2,4-dioxotetrahydropyrimidin-1(2H)-yl)benzo[d]isoxazol-5-yl)methyl)piperidine-1-carboxylate], the Dmax at 25 µM was determined as 85%, the remaining activity at 25 µM was found to be 15% and the DC50 is 160 nM.

As for `O=C1CCN(c2noc3ccc(CC4CCNCC4)cc23)C(=O)N1` [Example 1b, 1-(5-(piperidin-4-ylmethyl)benzo[d]isoxazol-3-yl)dihydropyrimidine-2,4(1H,3H)-dione hydrochloride], the Dmax at 25 µM was 88%, the remaining activity at 25 µM was determined as 12% and the DC50 turned out to be 210 nM.

As for `O=C1CCN(c2noc3ccc(CC4CCN(CC5CCC(F)(F)CC5)CC4)cc23)C(=O)N1` [Example 2, 1-(5-((1-((4,4-difluorocyclohexyl)methyl)piperidin-4-yl)methyl)benzo[d]isoxazol-3-yl)dihydropyrimidine-2,4(1H,3H)-dione], the Dmax at 25 µM worked out at 92%, the remaining activity at 25 µM was 8% and the DC50 turned out to be 1.2 nM.

As for `O=C1CCN(c2noc3ccc(CC4CCN(CC5CCC5)CC4)cc23)C(=O)N1` [Example 3, 1-(5-((1-(cyclobutylmethyl)piperidin-4-yl)methyl)benzo[d]isoxazol-3-yl)dihydropyrimidine-2,4(1H,3H)-dione], the Dmax at 25 µM was determined as 92%, the remaining activity at 25 µM is 8% and the DC50 was found to be 10 nM.

As to `O=C1CCN(c2noc3ccc(CC4CCN(Cc5cccnc5)CC4)cc23)C(=O)N1` [Example 4, 1-(5-((1-(pyridin-3-ylmethyl)piperidin-4-yl)methyl)benzo[d]isoxazol-3-yl)dihydropyrimidine-2,4(1H,3H)-dione], the Dmax at 25 µM is 92%, the remaining activity at 25 µM was determined as 8% and the DC50 came to 33 nM.

For `CC(C)CN1CCC(Cc2ccc3onc(N4CCC(=O)NC4=O)c3c2)CC1` [Example 5, 1-(5-((1-isobutylpiperidin-4-yl)methyl)benzo[d]isoxazol-3-yl)dihydropyrimidine-2,4(1H,3H)-dione], the Dmax at 25 µM turned out to be 91%, the remaining activity at 25 µM was 9% and the DC50 was determined as 14 nM.

`O=C1CCN(c2noc3ccc(CC4CCN(CC5CC5)CC4)cc23)C(=O)N1` [Example 6, 1-(5-((1-(cyclopropylmethyl)piperidin-4-yl)methyl)benzo[d]isoxazol-3-yl)dihydropyrimidine-2,4(1H,3H)-dione]: the Dmax at 25 µM came to 91%, the remaining activity at 25 µM was 9% and the DC50 turned out to be 30 nM.

For the compound `O=C1CCN(c2noc3ccc(CC4CCN(Cc5cccc(F)c5)CC4)cc23)C(=O)N1` [Example 7, 1-(5-((1-(3-fluorobenzyl)piperidin-4-yl)methyl)benzo[d]isoxazol-3-yl)dihydropyrimidine-2,4(1H,3H)-dione], the Dmax at 25 µM was found to be 91%, the remaining activity at 25 µM worked out at 9% and the DC50 was 18 nM.

For the compound `CCN1CCC(Cc2ccc3onc(N4CCC(=O)NC4=O)c3c2)CC1` [Example 8, 1-(5-((1-ethylpiperidin-4-yl)methyl)benzo[d]isoxazol-3-yl)dihydropyrimidine-2,4(1H,3H)-dione], the Dmax at 25 µM is 91%, the remaining activity at 25 µM was 9% and the DC50 was 16 nM.
